# Reference: ChEMBL document CHEMBL1201862, “PubChem BioAssay data set” (2004)
# Activity calls are given as the source filed them.
# Assays:
# [1] = target: Glucose-6-phosphate 1-dehydrogenase (Homo sapiens, UniProt P11413); assay: inhibition of Homo sapiens G6PD, dose series – biochemical, fluorescence, selectivity assay for P. falciparum G6PD inhibitor project, dose response (AID 504792); assay type: functional
# Aminopeptidase N = target: T1, Aminopeptidase N (Plasmodium falciparum FcB1/Columbia, UniProt O96935); assay: malaria alanyl aminopeptidase activity blockers – biochemical, fluorogenic H-Leu-NHMec substrate, 1536-well (AID 1445); set-up: species or system Plasmodium falciparum 3D7, 3D7
# T1 sequence (O96935 whole entry): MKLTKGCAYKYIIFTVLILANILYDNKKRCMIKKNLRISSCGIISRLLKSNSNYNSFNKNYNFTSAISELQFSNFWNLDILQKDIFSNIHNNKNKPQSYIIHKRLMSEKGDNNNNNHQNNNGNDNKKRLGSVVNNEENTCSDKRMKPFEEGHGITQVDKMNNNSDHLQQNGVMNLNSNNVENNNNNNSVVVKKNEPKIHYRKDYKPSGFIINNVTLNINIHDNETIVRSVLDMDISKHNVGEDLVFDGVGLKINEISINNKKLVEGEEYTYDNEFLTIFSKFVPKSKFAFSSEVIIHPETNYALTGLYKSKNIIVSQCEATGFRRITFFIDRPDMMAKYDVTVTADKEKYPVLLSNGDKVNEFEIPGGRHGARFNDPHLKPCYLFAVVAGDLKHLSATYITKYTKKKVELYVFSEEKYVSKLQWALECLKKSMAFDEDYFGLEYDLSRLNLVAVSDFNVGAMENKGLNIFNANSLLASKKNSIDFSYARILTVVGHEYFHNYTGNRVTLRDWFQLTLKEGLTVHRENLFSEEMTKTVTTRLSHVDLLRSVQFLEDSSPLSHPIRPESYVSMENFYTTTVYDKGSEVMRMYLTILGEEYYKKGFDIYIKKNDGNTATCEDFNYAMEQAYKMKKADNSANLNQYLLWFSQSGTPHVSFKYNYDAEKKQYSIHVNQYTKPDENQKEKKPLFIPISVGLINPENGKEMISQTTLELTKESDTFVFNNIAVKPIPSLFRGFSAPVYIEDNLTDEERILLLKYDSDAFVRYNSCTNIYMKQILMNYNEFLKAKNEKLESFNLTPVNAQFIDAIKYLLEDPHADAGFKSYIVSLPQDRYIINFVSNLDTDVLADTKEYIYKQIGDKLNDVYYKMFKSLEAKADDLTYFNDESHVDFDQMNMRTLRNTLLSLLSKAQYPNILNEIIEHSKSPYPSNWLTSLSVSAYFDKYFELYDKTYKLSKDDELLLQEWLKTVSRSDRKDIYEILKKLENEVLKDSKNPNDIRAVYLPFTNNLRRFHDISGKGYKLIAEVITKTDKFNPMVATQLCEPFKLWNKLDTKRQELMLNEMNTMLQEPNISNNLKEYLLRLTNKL
# [2] = target: T2, Histone-lysine N-methyltransferase NSD2 (Homo sapiens, UniProt O96028); assay type: biochemical
# T2 sequence (O96028 whole entry): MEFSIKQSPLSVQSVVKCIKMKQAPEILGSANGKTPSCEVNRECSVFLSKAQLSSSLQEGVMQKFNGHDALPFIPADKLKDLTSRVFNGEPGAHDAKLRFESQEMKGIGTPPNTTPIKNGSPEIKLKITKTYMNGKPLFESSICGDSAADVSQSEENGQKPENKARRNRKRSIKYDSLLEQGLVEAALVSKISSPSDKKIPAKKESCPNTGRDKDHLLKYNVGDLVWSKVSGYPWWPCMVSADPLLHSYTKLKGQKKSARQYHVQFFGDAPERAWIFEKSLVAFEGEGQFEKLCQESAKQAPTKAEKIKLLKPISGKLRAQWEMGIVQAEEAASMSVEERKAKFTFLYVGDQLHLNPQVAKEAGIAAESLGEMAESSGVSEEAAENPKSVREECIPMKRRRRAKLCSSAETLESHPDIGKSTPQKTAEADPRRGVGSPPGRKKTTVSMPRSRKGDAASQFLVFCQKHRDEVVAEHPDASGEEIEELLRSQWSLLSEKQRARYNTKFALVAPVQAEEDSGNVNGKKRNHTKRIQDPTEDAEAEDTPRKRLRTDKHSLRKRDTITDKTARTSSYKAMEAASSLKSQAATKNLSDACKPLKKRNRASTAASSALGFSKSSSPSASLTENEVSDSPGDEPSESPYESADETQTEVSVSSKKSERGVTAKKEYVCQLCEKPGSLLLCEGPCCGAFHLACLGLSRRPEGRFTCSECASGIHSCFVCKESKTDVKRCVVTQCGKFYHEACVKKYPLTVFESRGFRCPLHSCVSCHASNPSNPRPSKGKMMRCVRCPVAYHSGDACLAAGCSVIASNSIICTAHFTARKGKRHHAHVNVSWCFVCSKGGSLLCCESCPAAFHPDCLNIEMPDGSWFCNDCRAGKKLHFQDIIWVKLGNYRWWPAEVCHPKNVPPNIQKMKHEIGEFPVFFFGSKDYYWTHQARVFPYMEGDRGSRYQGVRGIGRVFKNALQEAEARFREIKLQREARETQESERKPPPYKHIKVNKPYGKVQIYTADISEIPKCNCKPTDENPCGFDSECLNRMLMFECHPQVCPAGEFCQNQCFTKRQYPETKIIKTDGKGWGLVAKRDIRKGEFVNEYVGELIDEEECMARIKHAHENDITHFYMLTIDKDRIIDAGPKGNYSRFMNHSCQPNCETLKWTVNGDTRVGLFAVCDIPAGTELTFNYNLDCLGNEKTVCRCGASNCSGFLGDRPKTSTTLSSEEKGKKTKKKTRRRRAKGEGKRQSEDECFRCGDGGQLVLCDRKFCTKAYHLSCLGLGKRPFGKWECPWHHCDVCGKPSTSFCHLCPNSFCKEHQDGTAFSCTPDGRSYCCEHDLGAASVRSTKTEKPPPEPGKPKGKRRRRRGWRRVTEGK
# [3] = target: T3, DNA repair protein RAD52 homolog (Homo sapiens, UniProt P43351); assay type: functional, biochemical
# T3 sequence (P43351 whole entry): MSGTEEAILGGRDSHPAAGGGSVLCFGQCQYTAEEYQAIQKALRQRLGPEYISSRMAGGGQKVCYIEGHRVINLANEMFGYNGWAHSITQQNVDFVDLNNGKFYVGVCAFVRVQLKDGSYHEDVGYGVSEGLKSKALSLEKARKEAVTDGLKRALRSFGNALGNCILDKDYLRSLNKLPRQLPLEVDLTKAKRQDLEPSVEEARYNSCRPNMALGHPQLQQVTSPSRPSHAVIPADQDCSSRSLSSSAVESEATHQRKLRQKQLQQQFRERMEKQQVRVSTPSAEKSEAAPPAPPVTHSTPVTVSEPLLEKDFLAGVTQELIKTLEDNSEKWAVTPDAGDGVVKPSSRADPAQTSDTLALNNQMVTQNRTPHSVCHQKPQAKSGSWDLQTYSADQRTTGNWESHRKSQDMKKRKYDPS
# Nonstructural protein 1 = Nonstructural protein 1 (Influenza A virus, UniProt Q194T2); assay type: functional, Influenza A virus (A/California/07/2009(H1N1))
# [4] = THP-1 cell cytotoxicity, dose response, cytotoxicity control for non-replicating M. tuberculosis project (AID 489025); assay type: functional
# cells = assay type: functional
# [5] = NIH-3T3 fibroblast cytotoxicity, dose response, cytotoxicity control, cell-based, fluorescence, Alamar Blue, secondary assay (AID 2327); assay type: functional;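 further: NIH-3T3 mouse fibroblasts cultured with fluconazole at 8 µg/mL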
# [6] = fluconazole-exposed Candida albicans growth modulators – fluorescence, retest, confirmation (AID 2467); assay type: functional, cell-based
# [7] = A cytotoxicity screen of small molecule inhibitors of the PhoP region in Salmonella typhi identified in the primary screen. [Related pubchem assays: 1850, 1864, 1985 ]; assay type: functional
# [8] = target: Glyceraldehyde-3-phosphate dehydrogenase (Homo sapiens, UniProt P04406)
# [9] = target: T4, Ubiquitin-conjugating enzyme E2 N (Homo sapiens, UniProt P61088); assay type: functional;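 further: Dose-response confirmation in a TR-FRET assay detecting UBC13-driven polyubiquitin chain formation, inhibition measured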
# T4 sequence (P61088 whole entry): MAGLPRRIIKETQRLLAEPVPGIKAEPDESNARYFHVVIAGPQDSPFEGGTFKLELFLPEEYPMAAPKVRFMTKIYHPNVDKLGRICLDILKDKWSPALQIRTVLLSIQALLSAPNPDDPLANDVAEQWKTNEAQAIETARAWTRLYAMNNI
# Nonstructural protein 1, sequence (Q194T2 whole entry): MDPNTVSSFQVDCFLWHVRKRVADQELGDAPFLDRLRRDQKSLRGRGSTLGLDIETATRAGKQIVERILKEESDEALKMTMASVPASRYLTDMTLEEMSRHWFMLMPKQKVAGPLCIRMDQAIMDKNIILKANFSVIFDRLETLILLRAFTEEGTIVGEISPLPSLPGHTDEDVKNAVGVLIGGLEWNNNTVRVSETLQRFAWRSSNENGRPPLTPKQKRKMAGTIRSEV
# Glucose-6-phosphate 1-dehydrogenase, sequence (P11413 whole entry): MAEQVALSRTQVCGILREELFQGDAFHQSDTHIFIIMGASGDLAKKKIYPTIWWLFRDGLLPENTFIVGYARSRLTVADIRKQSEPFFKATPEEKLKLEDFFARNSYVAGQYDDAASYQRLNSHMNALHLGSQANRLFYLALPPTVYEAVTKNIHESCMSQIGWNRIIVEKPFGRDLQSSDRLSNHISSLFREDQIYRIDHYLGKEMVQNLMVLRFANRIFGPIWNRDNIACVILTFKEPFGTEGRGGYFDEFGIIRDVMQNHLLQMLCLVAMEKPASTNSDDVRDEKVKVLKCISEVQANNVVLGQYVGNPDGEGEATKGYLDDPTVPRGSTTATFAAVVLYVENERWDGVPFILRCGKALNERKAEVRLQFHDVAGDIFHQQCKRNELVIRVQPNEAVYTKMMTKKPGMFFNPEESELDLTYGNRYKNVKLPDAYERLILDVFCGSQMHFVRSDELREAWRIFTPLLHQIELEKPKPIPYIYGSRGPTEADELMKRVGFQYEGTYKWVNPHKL
# Glyceraldehyde-3-phosphate dehydrogenase, sequence (P04406 whole entry): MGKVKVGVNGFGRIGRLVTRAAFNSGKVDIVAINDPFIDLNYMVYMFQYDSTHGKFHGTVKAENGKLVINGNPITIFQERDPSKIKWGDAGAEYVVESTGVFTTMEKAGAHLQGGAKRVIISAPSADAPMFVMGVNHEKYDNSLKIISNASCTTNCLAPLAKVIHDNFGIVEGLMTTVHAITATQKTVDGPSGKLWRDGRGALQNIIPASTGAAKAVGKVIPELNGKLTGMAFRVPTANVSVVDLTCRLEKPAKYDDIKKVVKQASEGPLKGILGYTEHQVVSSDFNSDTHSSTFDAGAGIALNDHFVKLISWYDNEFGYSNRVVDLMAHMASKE
compound,measurement,setting,value
COc1cc(NCc2ccccc2)c2ncn(Cc3ccccc3)c2c1,IC50,[1],> 80 µM (inactive)
O=C1c2cccc3cccc(c23)C(=O)N1CCCc1nnc(S)n1-c1ccccc1,IC50,Aminopeptidase N,17.9 µM (active)
CNCCCc1ccccc1,AC50,[2],> 20 µM (inactive)
CCOc1ccc2[nH]c3c(c2c1)CNCC3,AC50,[3],26.8 µM (active)
CCCN(CCC)CCNC(=O)c1cc2c(-c3ccccc3F)nn(C)c2s1,AC50,[2],> 20 µM (inactive)
COc1ccccc1NC(=O)CSc1ccc(-c2ccccn2)nn1,IC50,Nonstructural protein 1,7.99 µM (active)
CCc1ccc(Cc2cnc(NC(=O)C3=NCCN3)s2)cc1,CC50,[4],> 40 µM (active)
same,IC50,cells,9.25 µM (active)
COCc1cc(CN2CCN(C)CC2)c(O)c2ncccc12,EC50,[5],> 160 µM (inactive)
same,EC50,[6],> 38 µM (not active)
same,IC50,Nonstructural protein 1,4.15 µM (active)
O=C(CCCOc1ccccc1)OCn1nnc2ccccc2c1=O,IC50,cells,3.55 µM (active)
Cc1cccc(C(=O)Nc2nnc(S(=O)(=O)N3CCOCC3)s2)c1,IC50,[1],54.4 µM (inactive)
COc1ccccc1NC(=O)Cn1nc(-c2ccncc2)nc1SCC(=O)NC1CCCC1,EC50,[7],> 50 µM (active)
Cc1ccsc1C(C(=O)NC1CCCCC1)N(C(=O)c1csnn1)C1CC1 (configuration not stated),IC50,Aminopeptidase N,87.7 µM (active)
CC1CCCCN1S(=O)(=O)c1ccc(S(=O)(=O)NCCc2ccncc2)cc1 (configuration not stated),EC50,[7],> 50 µM (active)
COc1cccc(NC(=O)CSc2nn3c(=O)c(C)nnc3s2)c1,IC50,Nonstructural protein 1,11.3 µM (active)
CC(C)Cc1nc(N2CCOCC2)c(C#N)c2c1COC(C)(C)C2,EC50,[7],> 50 µM (active)
O=C(CN1CCN(S(=O)(=O)c2ccc(Cl)cc2)CC1)c1ccc(O)c(O)c1,AC50,[2],4.91 µM (active)
O=C1C(Cl)=C(N2CCN(Cc3ccc4c(c3)OCO4)CC2)C(=O)N1c1cccc(C(F)(F)F)c1,IC50,[8],> 50 µM (inconclusive)
COc1cccc(-c2nnc(SCC(=O)O)[nH]2)c1,IC50,[8],> 100 µM (not active)
CC1(C)Cc2c(sc3nc4n(-c5ccccc5)c(=O)c(CCC(=O)O)nn4c(=O)c23)CO1,IC50,[1],34.1 µM (inactive)
CN(C)CCCN(C(=O)c1ccc(C(=O)c2ccccc2)cc1)c1nc2cc3c(cc2s1)OCO3,IC50,[9],> 20 µM (inactive)
same,AC50,[3],7.81 µM (active)
CCOC(=O)COn1c(=O)c(-c2cccs2)[n+]([O-])c2ccccc21,EC50,[7],> 50 µM (active)
CCc1ccc(NC(=O)Nc2ccncc2)cc1,EC50,[7],> 50 µM (active)
COc1ccc(OC)c(CCNC(=O)CS(=O)(=O)Cc2nc(-c3ccccc3C)oc2C)c1,EC50,[7],> 50 µM (active)
COc1ccc2c(c1)CC1c3c(cc4c(c3-2)OCO4)CC[N+]1(C)[O-] (configuration not stated),AC50,[3],3.38 µM (active)
CCCCN(CC)Cc1c(O)ccc2c3c(c(=O)oc12)CCC3,IC50,Aminopeptidase N,57.7 µM (active)
CCN1CCCC1CNC(=O)c1ccc2c(c1)NC(=O)/C(=C\c1ccccc1F)S2 (configuration not stated),IC50,[1],> 80 µM (inactive)
same,AC50,[3],6.33 µM (active)
C#CCOCCOCCOCCNc1nc(N2CCN(C(=O)Cn3cc(CCCN=C(N)N)nn3)CC2)nc(N2CCN(C(=O)[C@H](CCCCN)n3cc(CCCC)nn3)CC2)n1,AC50,[3],34 µM (active)
O=C(OCc1nnc(-c2ccccc2)o1)c1ccc(Br)o1,IC50,cells,20.1 µM (active)
C/C(Cn1nnc([N+](=O)[O-])n1)=N\NC(=O)c1ccc(O)cc1,IC50,[1],> 80 µM (inactive)
N#CC1C(=O)Nc2cccnc21 (configuration not stated),AC50,[2],> 20 µM (inactive)
O=C(N/N=C/c1ccccc1C(=O)O)c1cc(-c2ccc3c4c(cccc24)CC3)[nH]n1,IC50,Aminopeptidase N,85.2 µM (active)
CC(=O)O[C@H]1C[C@@H]2CC[C@@H]3[C@H](CC[C@@]4(C)[C@H]3C[C@H]([N+]3(C)CCCCC3)[C@@H]4OC(C)=O)[C@@]2(C)C[C@@H]1[N+]1(C)CCCCC1 [PANCURONIUM BROMIDE],AC50,[3],8.3 µM (active)
